What was measured:
[1] = system: IL-6 levels in 3T3-L1 cells; conditions: 3T3-L1 cells after stimulation with TNFα; cited from earlier work
[2] = system: IL-6 levels in stressed C2C12 cells; conditions: cited from earlier work
[3] = system: Interleukin-6 (IL-6) secretion in C2C12 myotubes; assay: IL-6 release from cytomix (CTX)-inflamed C2C12 myotubes (ELISA of culture media); type: cell-based, mouse; conditions: for Impact on the release of IL-6 (significance): FIG. 3
Procedure: We first studied what is the lowest non-functional dose of Urolithin A in the context of cytokine-mediated muscle cell inflammation. For this, we exposed C2C12 myotubes to increasing doses of Urolithin A within a range of 1.56 uM to […] for 24 hours, and then induced inflammation for an additional 24 hours by applying to cells a mix of pro-inflammatory cytokines (Cytomix, abbreviated CTX). One set of cells were left untreated, indicated by the first bar (CTX−, UA−). One set of cells were treated with CTX but not Urolithin A (second bar, CTX+, UA−). At the end of the study, we measure the concentration of the proinflammatory biomarker Interleukin 6 (IL-6) released in the cell culture media.
Based on the literature we used concentrations of ERGO at two low doses—potentially non-functional—i.e. 4 uM and 20 uM. […] As for the UA experiment in FIG. 1, we treated C2C12 with ERGO at these […] doses for 24 hours, followed by treatment with CTX for additional 24 hours.
For this combination experiment, C2C12 were treated without CTX, with CTX alone and with CTX plus either UA alone (6.25 uM), ERGO alone (both 20 uM and 100 uM) and UA plus ERGO 20 uM and UA+ERGO 100 uM.
C2C12 Myoblasts purchased from the American Type Culture Collection (ATCC; ref. CRL-1772) were seeded at 8000 cells per well in a 96 well plate (Greiner) using a DMEM Glutamax 4.5 g D-glucose (Gibco, ref 31966021) supplemented with FBS 10% (PanBiotech, ref P190902), 1% PenStrep (Biowest, Nuaill6, France) and 1% Hepes (Biowest). Cells were then differentiated for 6 days using a differentiation medium (DMEM Glutamax 4.5 g D-glucose (Gibco, ref 31966021), 2% Horse serum (Thermofisher, ref 160501229) 1% PenStrep and 1% Hepes). All our media were sterilized with a 0.45 μm filter unit (VWR). After 4 days of the differentiation cells were treated for 24 h with 1) Urolithin A (UA), Ergothieoneine (ERGO, MedChem Express HY-N1914) or a combination of the two at the indicated doses. Cytokine mix (“cytomix”) was added at day 5 in addition of the previous treatment for another 24 h, cytokines were respectively used at 5 ng (mIFN-γ (Roche ref.11276905001), TNF-α (Peprotech ref. 300-01A) and IL-β (Proteintech ref. 200-011B)). The medium was collected and an ELISA for Interleukin-6 were performed following the instruction provided by the supplier (Proteintech ref. KE10007). Finally, the absorbance at a wavelength of 450 nm was measured using a microplate plate reader (Fluostar Optima, BMG Labtech).

[4] = system: Interleukin-6 (IL-6) secretion in human dermal fibroblasts (nHDF); assay: IL-6 in supernatant of cytokine mix-treated normal human dermal fibroblasts (nHDF) (ELISA); type: cell-based
Procedure: A dose of 0.025 ng/ml of Cytokines mix was applied to induce inflammation, measured by quantifying the levels of the pro-inflammatory cytokine interleukin 6 (IL-6) in the cell culture supernatant. For the experiment, cells were first pre-treated with either i) urolithin A 2.5 uM, ii) Zinc at 100 uM, iii) a combination of urolithin A 2.5 uM and Zinc 100 uM, iv) or DMSO as control for 24 h. Then cells were co-treated with both CTX and either urolithin A or Zinc alone or in combination, as above. After 24 h, IL-6 was measured in the cell supernatant to assess the ability of Urolithin A and Zinc to reduce Cytokines-induced inflammation.
Normal Human dermal fibroblasts (nHDF) purchased from Promocell (ref. C-12302) were seeded at 6000 cells per well in a 96 well plate (Greiner) using a DMEM Glutamax 1 g D-glucose (Gibco, ref 21885108) supplemented with FBS 10% (PanBiotech, ref P30-3033), 1% PenStrep (Biowest) and 1% Hepes (Biowest). All media were sterilized with a 0.45 μm filter unit (VWR). The day after the seeded cells were treated for 24 h with 1) Urolithin A (UA) resuspended in DMSO, Zinc gluconate (MedChemExpress Ref. HY-W145499) or a combination of the two at the indicated doses.Cytokine mix (“cytomix”) was added in addition of the previous treatment for another 24 h, cytokines were used equally for a total and final concentration of 0.025 ng/ml (mIFN-g (roche ref.11276905001), TNF-α (Peprotech ref. 300-01A) and IL-b (Proteintech ref. 200-011B)). The medium was collected and an ELISA for Interleukin-6 were performed following the instruction provided by the supplier (Proteintech ref. KE10007). Finally, the absorbance at a wavelength of 450 nm was measured using a microplate plate reader (Fluostar Optima, BMG Labtech). IL-6 data were finally normalized over cell number, calculated with a cell viability assay (Promega, ref. G7571).

For `C[N+](C)(C)[C@@H](Cc1c[nH]c(=S)[nH]1)C(=O)[O-]` [ERGO, ergothioneine], the “Effect on IL-6 levels” value [1] is listed as “reduce IL-6 levels”, the “Effect on IL-6 levels” value [2] is listed as “reduce IL-6 levels” and the “Percent change in IL-6 vs CTX alone” value ([3]; ERGO 20 uM, 24 h, then CTX further 24 h, C2C12 myotubes) is listed as “+1.2%”. The “Percent change in IL-6 vs CTX alone” value ([3]; ERGO 100 uM, 24 h, then CTX further 24 h, C2C12 myotubes) was −28%, the “Impact on IL6 (significance)” value ([3]; ERGO 100 uM, CTX) was “significant reduction” and the “Impact on the release of IL-6 (significance)” value ([3]; ERGO alone 20 uM, CTX) was “did not significantly impact”. The “Only dose leading to a significant decrease in CTX-induced IL-6 secretion” value ([3]; ERGO tested at 4 uM, 20 uM and 100 uM, FIG. 2) was 100 µM.
With `O=c1oc2cc(O)ccc2c2ccc(O)cc12` [UA, Urolithin A] the “First dose at which UA did not exert a significant reduction in IL-6 (sub-functional dose)” value ([3]; C2C12 myotubes, CTX, FIG. 1) was 6.25 µM, the “Effect on IL-6 release of CTX inflamed cells” value ([3]; UA 1.56 uM to 50 mM, 24 h, then CTX 24 h, FIG. 1) was “dose dependent decrease” and the “Percent change in IL-6 vs CTX alone” value ([3]; UA 6.25 uM, 24 h, then cytomix (CTX) further 24 h, C2C12 myotubes) was −5.2%. For the same compound, the “Impact on the release of IL-6 (significance)” value ([3]; UA alone 6.25 uM, CTX) was “did not significantly impact” and the “% reduction IL-6” value ([4]; CTX vs. CTX + UA 2.5 uM, nHDF) was −25%.
For Zinc gluconate, the “% reduction IL-6” value ([4]; CTX vs. CTX + Zinc 100 uM, nHDF) was −29.6%, the “Relative Change (%) Compared to CTX” value ([4]; Zinc 100 uM, CTX 0.025 ng/ml, IL-6 in nHDF supernatant) was −29.57% and the “Reduction of CTX-mediated increase of IL-6” value ([4]; Zinc 100 uM, nHDF) was 29.6%.
